PubChem BioAssay AID1259411 (Chemical Carcinogenesis Research Information System (CCRIS), 2018)
Active and inactive are the calls of the source. The rule behind the calls is not given here.

Tested on: rodent carcinogenicity bioassays, tumor incidence
Assay: CCRIS carcinogenicity studies
Summary of the method: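 Archive of carcinogenicity, mutagenicity, tumor promotion and tumor inhibition results drawn from journals, NCI reports and other sources, expert-reviewed; covers 1985-2011 and is no longer updated.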

Measured: carcinogen call

c1ccccc1
active: Species: HUMAN, Route: INHALATION, DERMAL, Tumor Site: Type of Lesion: HEMATOPOIETIC SYSTEM (LEUKEMIA) active; positive | Species: MOUSE, Route: INHALATION, Dose: 0, 300 PPM 6 HR/D 5 D/WK FOR 16 WK (STUDY DURATION: LIFETIME), Tumor Site: Type of Lesion: HEMATOPOIETIC SYSTEM: LYMPHOMA active; positive | Species: MOUSE, Strain/Sex: B6C3F1/FEMALE, Route: GAVAGE, Dose: 0, 25, 50, 100 MG/KG IN CORN OIL 5 D/WK FOR 103 WK, Dose: 0, 25, 50, 100 MG/KG IN CORN OIL 5 D/WK FOR 103 WK, Tumor Site: Type of Lesion: LUNG: ALVEOLAR/BRONCHIOLAR CARCINOMA, ALVEOLAR/BRONCHIOLAR ADENOMA OR CARCINOMA, HEMATOPOIETIC SYSTEM: MALIGNANT LYMPHOM active; positive | Species: MOUSE, Strain/Sex: B6C3F1/MALE, Route: GAVAGE, Dose: 0, 25, 50, 100 MG/KG IN CORN OIL 5 D/WK FOR 103 WK, Dose: 0, 25, 50, 100 MG/KG IN CORN OIL 5 D/WK FOR 103 WK, Tumor Site: Type of Lesion: LUNG: ALVEOLAR/BRONCHIOLAR CARCINOMA, ALVEOLAR/BRONCHIOLAR ADENOMA, HEMATOPOIETIC SYSTEM: MALIGNANT LYMPHOMA, LEUKEMIA O active; positive | Species: MOUSE, Strain/Sex: C57BL/FEMALE, Route: INHALATION, Dose: 0, 300 PPM 6 HR/D 5 D/WK FOR 16 WK (STUDY DURATION: 64 WK), Tumor Site: Type of Lesion: LYMPHATIC SYSTEM: LYMPHOMA active; positive | Species: MOUSE, Strain/Sex: C57BL/FEMALE, Route: INHALATION, Dose: 0, 300 PPM 6 HR/D 5 D/WK FOR 16 WK (STUDY DURATION: 750 D), Tumor Site: Type of Lesion: HEMATOPOIETIC SYSTEM: LYMPHOCYTIC LEUKEMIA, LEUKEMIA, THYMUS GLAND: LEUKEMIA, ZYMBAL GLAND: TUMOR, OVARY: TUMOR, Tumor Site: Type of Lesion: HEMATOPOIETIC SYSTEM: LYMPHOCYTIC LEUKEMIA, LEUKEMIA, THYMUS GLAND: LEUKEMIA, ZYMBAL GLAND: TUMOR, OVARY: TUMOR active; positive | Species: MOUSE, Strain/Sex: C57BL/MALE, Route: INHALATION, Dose: 0, 300 PPM 6HR/D, 5D/WK FOR 1 WK FOLLOWED BY 2 WK NO TREATMENT, CYCLE REPEATED FOR LIFESPAN (STUDY DURATION: LIFESPAN), Tumor Site: Type of Lesion: LUNG: ADENOMA, HEMATOPOIETIC SYSTEM: LEUKEMIA OR LYMPHOMA, ZYMBAL GLAND: CARCINOMA, Tumor Site: Type of Lesion: LUNG: ADENOMA, HEMATOPOIETIC SYSTEM: LEUKEMIA OR LYMPHOMA, ZYMBAL GLAND: CARCINOMA active; positive | Species: MOUSE, Strain/Sex: C57BL/MALE, Route: INHALATION, Dose: 0, 300 PPM 6 HR/D, 5 D/WK FOR LIFE, Tumor Site: Type of Lesion: HEMATOPOIETIC SYSTEM: LYMPHOCYTIC LYMPHOMA active; positive | Species: MOUSE, Strain/Sex: CBA/CA BNL/FEMALE, Route: INHALATION, Dose: 0, 300 PPM 6 HR/D 5 D/WK FOR 16 WK (STUDY DURATION: >1100 D), Tumor Site: Type of Lesion: HEMATOPOIETIC SYSTEM: MYELOGENOUS NEOPLASM active; positive | Species: MOUSE, Strain/Sex: CBA/CA BNL/MALE, Route: INHALATION, Dose: 0, 100, 300 PPM 6 HR/D 5 D/WK FOR 16 WK (STUDY DURATION: >1100 D), Dose: 0, 100, 300 PPM 6 HR/D 5 D/WK FOR 16 WK (STUDY DURATION: >1100 D), Tumor Site: Type of Lesion: HEMATOPOIETIC SYSTEM: MYELOGENOUS NEOPLASM active; positive | Species: MOUSE, Strain/Sex: CBA/MALE, Route: INHALATION, Dose: 0, 300 PPM 6 HR/D 5 D/WK FOR 16 WK (STUDY DURATION: 22 MO), Tumor Site: Type of Lesion: LYMPHATIC SYSTEM: MALIGNANT LYMPHOMA, PREPUTIAL GLAND: SQUAMOUS CELL CARCINOMA, LUNG: ADENOMA, Tumor Site: Type of Lesion: LYMPHATIC SYSTEM: MALIGNANT LYMPHOMA, PREPUTIAL GLAND: SQUAMOUS CELL CARCINOMA, LUNG: ADENOMA active; positive | Species: MOUSE, Strain/Sex: CD-1/MALE, Route: INHALATION, Dose: 0, 300 PPM 6HR/D, 5D/WK FOR 1 WK FOLLOWED BY 2 WK NO TREATMENT, CYCLE REPEATED FOR LIFESPAN (STUDY DURATION: LIFESPAN), Tumor Site: Type of Lesion: LUNG: ADENOMA, HEMATOPOIETIC SYSTEM: LEUKEMIA OR LYMPHOMA, ZYMBAL GLAND: CARCINOMA, Tumor Site: Type of Lesion: LUNG: ADENOMA, HEMATOPOIETIC SYSTEM: LEUKEMIA OR LYMPHOMA, ZYMBAL GLAND: CARCINOMA active; positive | Species: MOUSE, Strain/Sex: CD-1/MALE, Route: INHALATION, Dose: 0, 1200 PPM 6HR/D, 5D/WK FOR 10 WK (STUDY DURATION: LIFESPAN), Tumor Site: Type of Lesion: LUNG: ADENOMA, HEMATOPOIETIC SYSTEM: LEUKEMIA OR LYMPHOMA, ZYMBAL GLAND: CARCINOMA, Tumor Site: Type of Lesion: LUNG: ADENOMA, HEMATOPOIETIC SYSTEM: LEUKEMIA OR LYMPHOMA, ZYMBAL GLAND: CARCINOMA active; positive | Species: MOUSE, Strain/Sex: SWISS/FEMALE, Route: GAVAGE, Dose: 0, 500 MG/KG IN OLIVE OIL 1/D FOR 4 TO 5 D/WK FOR 78 WK (STUDY DURATION: LIFETIME), Tumor Site: Type of Lesion: MAMMARY GLAND: CARCINOMA, LUNG: TUMORS, ZYMBAL GLAND: CARCINOMA, Tumor Site: Type of Lesion: MAMMARY GLAND: CARCINOMA, LUNG: TUMORS, ZYMBAL GLAND: CARCINOMA active; positive | Species: MOUSE, Strain/Sex: SWISS/FEMALE, Route: INTRAGASTRIC, Dose: 0, 500 MG/KG IN OLIVE OIL 1/D 4-5 D/WK FOR 78 WK (STUDY DURATION: LIFESPAN), Tumor Site: Type of Lesion: LUNG: ADENOMA, MAMMARY GLAND: MALIGNANT TUMOR active; positive | Species: MOUSE, Strain/Sex: SWISS/MALE, Route: GAVAGE, Dose: 0, 500 MG/KG IN OLIVE OIL 1/D FOR 4 TO 5 D/WK FOR 78 WK (STUDY DURATION: LIFETIME), Tumor Site: Type of Lesion: LUNG: TUMOR, ZYMBAL GLAND: CARCINOMA active; positive | Species: MOUSE, Strain/Sex: SWISS/MALE, Route: INTRAGASTRIC, Dose: 0, 500 MG/KG IN OLIVE OIL 1/D 4-5 D/WK FOR 78 WK (STUDY DURATION: LIFESPAN), Tumor Site: Type of Lesion: ZYMBAL GLAND: CARCINOMA, LUNG: ADENOMA active; positive | Species: Mouse, Strain/Sex: C57BL/6 (heterozygous Trp53-deficient)/Male, Route: Inhalation, Dose: 0, 33, 100, 300 ppm 6 hr/d, 5 d/wk for 26 wks, then no exposure for lifetime, Dose: 0, 33, 100, 300 ppm 6 hr/d, 5 d/wk for 26 wks, then no exposure for lifetime, Tumor Site: Type of Lesion: Blood: hematopoietic neoplasms (38, 41, 36, 89%). Lymphoid tissue: thymic lymphoma (0, 4,16, 73%) active; positive (highest dose)
inactive: Species: MOUSE, Strain/Sex: C57BL/MALE, Route: INHALATION, Dose: 0, 1200 PPM 6HR/D, 5D/WK FOR 10 WK (STUDY DURATION: LIFESPAN) inactive; negative | Species: MOUSE, Strain/Sex: EU-PIM-1/FEMALE, Route: GAVAGE, Dose: 0, 50, 100 MG/KG 1/D FOR 40 WK (STUDY DURATION: 40 WK), Dose: 0, 50, 100 MG/KG 1/D FOR 40 WK (STUDY DURATION: 40 WK) inactive; negative | Species: MOUSE, Strain/Sex: EU-PIM-1/MALE, Route: GAVAGE, Dose: 0, 50, 100 MG/KG 1/D FOR 40 WK (STUDY DURATION: 40 WK), Dose: 0, 50, 100 MG/KG 1/D FOR 40 WK (STUDY DURATION: 40 WK) inactive; negative | Species: MOUSE, Strain/Sex: SWISS/FEMALE, Route: INTRAPERITONEAL, Dose: 0, 36.1, 137.3 UMOL ADMINISTERED AS 3 UNEQUAL DOSES (1/7, 2/7, AND 4/7 OF THE TOTAL DOSE) OVER A 2-WK PERIOD (STUDY DURA, Dose: 0, 36.1, 137.3 UMOL ADMINISTERED AS 3 UNEQUAL DOSES (1/7, 2/7, AND 4/7 OF THE TOTAL DOSE) OVER A 2-WK PERIOD (STUDY DURA inactive; negative | Species: MOUSE, Strain/Sex: SWISS/MALE, Route: INTRAPERITONEAL, Dose: 0, 36.1, 137.3 UMOL ADMINISTERED AS 3 UNEQUAL DOSES (1/7, 2/7, AND 4/7 OF THE TOTAL DOSE) OVER A 2-WK PERIOD (STUDY DURA, Dose: 0, 36.1, 137.3 UMOL ADMINISTERED AS 3 UNEQUAL DOSES (1/7, 2/7, AND 4/7 OF THE TOTAL DOSE) OVER A 2-WK PERIOD (STUDY DURA inactive; negative
